Test results as given in doi:10.1101/2023.08.21.552681v1 (biorxiv, 2023).
Read-outs that look alike come from different tables or passages of the source.

Columns and labels:
ctdWDR91 [1] = biological target: T1, ctdWDR91 (Homo sapiens, UniProt A4D1P6); experiment: biochemical
T1 sequence (A4D1P6 392-747): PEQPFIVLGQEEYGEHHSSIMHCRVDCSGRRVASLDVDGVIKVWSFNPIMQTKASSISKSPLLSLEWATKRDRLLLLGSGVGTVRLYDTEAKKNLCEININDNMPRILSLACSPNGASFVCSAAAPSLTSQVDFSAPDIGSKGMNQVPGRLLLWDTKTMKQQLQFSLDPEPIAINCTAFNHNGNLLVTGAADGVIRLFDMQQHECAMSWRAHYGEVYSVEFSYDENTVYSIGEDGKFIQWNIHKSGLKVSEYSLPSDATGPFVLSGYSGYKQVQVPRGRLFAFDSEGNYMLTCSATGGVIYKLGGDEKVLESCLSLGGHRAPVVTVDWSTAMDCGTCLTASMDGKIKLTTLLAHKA

ctdWDR91 [2] = biological target: T1, ctdWDR91; experiment: biochemical; remark: listed apart in the source

Compound | Kd (ctdWDR91 [1]) [µM] | Kd (ctdWDR91 [2]) [µM]
O=C(NCCc1ccc(Cl)cc1)c1ccc(N2CCC(O)C2)cc1 (stereo not drawn) [DRGG001935a] | > 45 | –
O=C(NCC1CCN(c2ccc(Cl)cc2)C1)c1ccc(C(=O)NC2CC2)cc1 (stereo not drawn) [DRGG001936a] | > 45 | –
CC1CCN(c2ccc(C(=O)NC3(C)Cc4ccccc4C3)cc2)C1 (stereo not drawn) [DRGG001937a] | > 45 | –
O=C(NCC1CCN(c2ccc(F)cc2)C1)c1ccc(N2CCC(O)C2)cc1 (stereo not drawn) [DRGG001938a] | > 45 | –
Nc1ncnc2cc(C(=O)NC3(c4ccc(Cl)cc4)COC3)ccc12 [DRGG001943a] | 37 | –
O=C(NCC1CCN(c2ccc(Cl)cc2)C1)c1ccc(OC2CCOC2)cc1 (stereo not drawn) [DRGG001945a] | > 45 | –
O=C1Cc2c(cccc2C(=O)NC2(c3ccc(Cl)cc3)COC2)N1 [DRGG001947a] | > 45 | –
O=C(NC1(c2ccc(Cl)cc2)COC1)c1cncc2cnccc12 [DRGG001948a] | > 45 | –
O=C(NCC1CCN(c2ccc(Cl)cc2)C1)c1ccc(F)cc1 (stereo not drawn) [DRGG001950a] | > 45 | –
O=C(CNC(=O)c1ccc(O)cc1)NCC1CCN(c2ccc(Cl)cc2)C1 (stereo not drawn) [DRGG001951a] | > 45 | –
O=C(NC1(Cc2ccccc2)COC1)c1ccc(N2CCC(O)C2)cc1 (stereo not drawn) [DRGG001952a] | > 45 | –
Cc1ccc(N2CCC(NC(=O)c3ccc(Cl)cc3)C2)cc1 (stereo not drawn) [DRGG001953a] | > 45 | –
O=C(c1ccc(N2CCC(O)C2)cc1)N1Cc2ccc(Cl)cc2C1 (stereo not drawn) [DRGG001955a] | > 45 | –
CC(C)(C)OC(=O)NCc1ccc(C(=O)NC2CCN(c3ccc(Cl)cc3)C2)cc1 (stereo not drawn) [MRGG045288a] | – | > 45
N#Cc1cc(C(F)(F)F)cc(N2CCCN(C3CC3)CC2)n1 [MRGG045289a] | – | > 45
Cc1[nH]c2ccccc2c1CC(=O)N(C)C1CCN(C2CC2)C1 (stereo not drawn) [MRGG045290a] | – | > 45
Cc1ccccc1CN1CC(=O)N(CC2CCN(c3ccc(F)cc3)C2)C1=O (stereo not drawn) [MRGG045291a] | – | > 45
CC1CN(C2CC2)CC1NC(=O)CCCCc1c[nH]c2ccccc12 (stereo not drawn) [MRGG045292a] | – | > 45
CN(C(=O)c1c(C2CC2)nc2sccn12)C1CCN(C2CC2)C1 (stereo not drawn) [MRGG045293a] | – | > 45
Cc1cccc(C#CCN2C[C@@H]3C[C@H]2CN3C2CC2)c1 [MRGG045294a] | – | > 45
CN1CCC(O)(CNC(=O)c2cnc3cc[nH]c3c2)C1 (stereo not drawn) [MRGG045295a] | – | > 45
O=C(NCc1ccc2cnccc2c1)c1snc(O)c1Cl [MRGG045296a] | – | > 45
N#Cc1cccc2c1CCN(C(=O)NCC1CCN(c3ccc(Cl)cc3)C1)C2 (stereo not drawn) [MRGG045297a] | – | > 45

Compound | Kd (ctdWDR91 [1]) [µM] | Kd (ctdWDR91 [2]) [µM]
Cc1cc(N2CCC(COC(=O)C3COc4ccccc43)C2)ccc1F (stereo not drawn) [MRGG045298a] | – | > 45
Cc1ccc(C(=O)NC2CC2)cc1NCc1cc(C#N)cc(C#N)c1 [MRGG045299a] | – | > 45
N#Cc1ccc2c(c1)CCCCC2NCC1CCN(C2CC2)C1 (stereo not drawn) [MRGG045300a] | – | > 45
CNC(=O)c1cccnc1N1C[C@@H]2CN(C)C[C@]2(C)C1 [MRGG045301a] | – | > 45
CN(C(=O)Cc1coc2ccccc12)C1CCN(C(=O)OC(C)(C)C)C1 (stereo not drawn) [MRGG045302a] | – | > 45
CN(Cc1ccccc1OCc1ccccc1F)C1CCN(C2CC2)C1 (stereo not drawn) [MRGG045303a] | – | > 45
C[C@@H]1CN(S(=O)(=O)c2ccc3ncsc3c2)[C@@H](C)CN1C [MRGG045304a] | – | > 45
O=C(Cc1ccc(O)c(O)c1)NC(CC1CC1)c1ccc(Cl)cc1 (stereo not drawn) [MRGG045306a] | – | > 45
C[C@H]1C(=O)N(CCN2CCc3ccccc32)C(=O)N1C [MRGG045307a] | – | > 45
CS(=O)(=O)N1CCC(CN(Cc2cccc(F)c2)C2CC2)C1 (stereo not drawn) [MRGG045308a] | – | > 45
CN(Cc1ccccc1-n1cccc1)C(=O)C1CCCN1C1CC1 (stereo not drawn) [MRGG045309a] | – | > 45
OC1CN(C2CC2)CC1N1CCc2ccccc2C1 (stereo not drawn) [MRGG045310a] | – | > 45
c1ccc(-n2ncc3c(NCC4CCN(C5CC5)C4)ncnc32)cc1 (stereo not drawn) [MRGG045311a] | – | > 45
CN(C1CCN(C2CC2)C1)S(=O)(=O)c1cccc2ccoc12 (stereo not drawn) [MRGG045312a] | – | > 45
C[C@H](NC1CCN(C2CC2)C1)c1cccc2cnccc12 (stereo partly drawn) [MRGG045313a] | – | > 45
COC(=O)c1cccc(-c2cccc(NC3CCN(C4CC4)C3)c2)c1 (stereo not drawn) [MRGG045314a] | – | > 45
Cc1ccc(C(=O)N(C)C)cc1-c1cccc(N2CCCC2)c1 [MRGG045315a] | – | > 45
CN1C(=O)CC(C(=O)NCc2ccc(O)c(O)c2)C1c1ccc(Cl)c(Cl)c1 (stereo not drawn) [MRGG045316a] | – | > 45
CC1(C)CN(C(=O)c2snc(O)c2Cl)c2ccc(Cl)cc21 [MRGG045317a] | – | > 45
CNC(=O)c1ccc(NC2CC3CCC(C2)N3C)nc1 (stereo not drawn) [MRGG045318a] | – | > 45
COc1cccc([C@@H]2[C@@H](NC3CCN(C4CC4)C3)CCN2C2CC2)c1 (stereo partly drawn) [MRGG045319a] | – | > 45
O=C(c1ccccc1)N1CCC(CN(C2CC2)C2CC2)C1 (stereo not drawn) [MRGG045320a] | – | > 45
CCCC(NC(=O)c1cc(O)c(O)cc1C)C(=O)N(C)C (stereo not drawn) [MRGG045321a] | – | > 45

Compound | Kd (ctdWDR91 [1]) [µM] | Kd (ctdWDR91 [2]) [µM]
Cc1cc(O)c(O)cc1C(=O)NC1(c2cccc(C#N)c2)CCC1 [MRGG045322a] | – | > 45
CC1CC(NC(=O)c2c[nH]c3cccc(Cl)c23)CN1C1CC1 (stereo not drawn) [MRGG045323a] | – | > 45
COc1ccnc(N(C)C(=O)CCn2cccc2)n1 [MRGG045324a] | – | > 45
Cc1cc(OCc2ccccc2)nc(N(C)C2CCN(C3CC3)C2)n1 (stereo not drawn) [MRGG045325a] | – | > 45
CN1CC(N(C)C(=O)c2cc(-n3cccc3)ccn2)C1 [MRGG045326a] | – | > 45
Cc1ccc(CN2CCC(CN(C)C3CC3)C2)s1 (stereo not drawn) [MRGG045327a] | – | > 45
O=C1NCC2(CC2)C(=O)N1CC1CCN(c2cccc(Br)c2)C1 (stereo not drawn) [MRGG045328a] | – | > 45
COc1ccc(CC(=O)N(C)Cc2cccc(N3CCCC3)c2)cc1[N+](=O)[O-] [MRGG045329a] | – | > 45
Cc1cc(O)c(O)cc1C(=O)N[C@H]1CC(=O)N(C)[C@@H]1c1ccc(Cl)cc1 [MRGG045330a] | – | > 45
O=c1[nH]nc2n1CCN(Cc1ccccc1CN1CCn3c(n[nH]c3=O)C1)C2 [MRGG045331a] | – | > 45
O=C1CC(c2nccs2)NC(=O)N1CC1CCN(c2ccc(Cl)cc2)C1 (stereo not drawn) [MRGG045332a] | – | > 45
N#Cc1cc(C#N)cc(CNc2cccc(CN3CCCC3=O)c2)c1 [MRGG045333a] | – | > 45
CC(C)(C)OC(=O)N1CCCC1C1CCN(C2CC2)C1 (stereo not drawn) [MRGG045334a] | – | > 45
O=C(NC(CCO)c1ccc(Cl)c(Cl)c1)c1ccc2c(c1)NC(=O)C1CCCN21 (stereo not drawn) [MRGG045335a] | – | > 45
CN1CC(N(C)C(=O)CCc2ccc3cc(O)c(O)cc3c2)C1 [MRGG045336a] | – | > 45
c1ccc(CN2CCC3(CCN(C4CC4)C3)C2)cc1 (stereo not drawn) [MRGG045337a] | – | > 45
CC1CN(C2CC2)CC1NC1CCN(C2CC2)CC1 (stereo not drawn) [MRGG045338a] | – | > 45
CC1CC(NCC2CCCCCC2)CN1C1CC1 (stereo not drawn) [MRGG045339a] | – | > 45
Cc1nc2sccn2c1C(=O)N(C)Cc1cccc(F)c1 [UBGG013392b] | – | > 45
CN(CCc1ccccc1)C(=O)Cc1ccc(O)c(O)c1 [UBGG028860b] | – | > 45
NC(=O)NC(CC(=O)Nc1ccc(N2CCCC2)cc1)c1ccc(Cl)cc1 (stereo not drawn) [XSGG048242e] | – | > 45
CC(NC(=O)CCNC(=O)c1ccc(Br)cc1)c1ccc(Cl)cc1 (stereo not drawn) [XSGG051538e] | – | > 45
O=C(NCc1ccc(N2CCCC2)cc1)c1ccc(F)cc1 [XSGG119722b] | – | > 45
